Data from patent US8404286B2, “Use of extracts or of extract compounds from Piper cubeba L. as active components in a medicament for the treatment of cancer” (Viridis Pharmaceutical Limited, priority 2007, dated 2013).

Experiments:
androgen receptor = test: Amount of androgen receptor by Western-blot analysis; format: cell-based; conditions: 2 days, 10% FBS
Procedure: The influence of the generation of androgen receptors by means of the liquid extract P9605 prepared according to example 1 was determined.
Thereby in one experiment LNCap cells were cultivated during 2 days in 10% FBS culture medium to which were added different concentrations either of the extract prepared according to the present invention or of the pure substance Cubebin.
Then was determined the change of the amount of the androgen receptor by means of the Western-blot analysis.
In FIG. 10 are shown the bands of the androgen receptor.

5α-reductase type II = target: T1, 5α-reductase type II (Homo sapiens, UniProt P31213); test: Inhibition of the 5α-reductase type II activity (HEK293 homogenate, 3H-testosterone to 3H-DHT); format: biochemical; conditions: homogenate of HEK293 cells over expressing the enzyme
T1 construct: expressed in transfected cells; host or cells: HEK293 (homogenate)
T1 sequence (P31213 1-254): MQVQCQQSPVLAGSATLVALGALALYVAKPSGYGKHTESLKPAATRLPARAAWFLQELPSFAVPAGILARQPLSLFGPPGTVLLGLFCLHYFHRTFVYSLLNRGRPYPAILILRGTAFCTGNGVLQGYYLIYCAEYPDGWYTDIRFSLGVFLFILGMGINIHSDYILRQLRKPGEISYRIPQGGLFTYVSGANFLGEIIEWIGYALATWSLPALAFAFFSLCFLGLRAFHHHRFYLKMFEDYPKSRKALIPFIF
Procedure: The inhibition of the 5α-reductase type II activity by means of the liquid extract P9605 prepared according to example 1 was determined.
The assay was realized with a homogenate of HEK293 cells that over express the 5α-reductase type II (Reichert W., Hartmann R. W. and Jose J.; 2001, Journal Enzyme Inhibition, Vol. 16, 47-53).
The influence of the extract prepared according to the present invention and of the pure substance Cubebin on the activity of the 5α-reductase type II was determined by means of the measurement of the conversion of ^3H-testosterone in ^3H-DHT.
As control substance was used the known 5α-reductase inhibitor “Finasterid”.
All obtained datas are given in percents with regard to the solvent control (test without extract); there are given the average values with Standard deviation from 4 experiments with 3-fold repetition.

PC-3 cells = test: Inhibition of the cell proliferation, PC-3 cells; format: cell-based; conditions: PC-3, 4 days, 10% FBS culture medium, versus solvent control
Procedure: (§1) With the liquid extract P9605 prepared according to example 1 were carried out cell proliferation tests. As control was carried along a typical substance of content of the cubeben fruits, the lignan Cubebin.
(§2) For the measurement of the inhibition of the cell proliferation this extract was added to LNCap and to PC-3 cells. The so treated cells were cultivated during 4 days in 10% FES culture medium.
(§3) For comparison the pure lignan Cubebin, that is contained in the extract prepared according to the invention and according to example 1 in an amount up to 20 m/m of the dry substance, was added also to LNCap and to PC-3 cells. The so treated cells were cultivated during 4 days in 10 FBS culture medium.
(§4) Thereby it was proceeded according to T. Lindl, Zell- und Gewebekultur, 4th revised edition, 2000, Spektrum Akademischer Verlag, Heidelberg.
(§5) All obtained datas are given in percents with regard to the solvent control (test without extract and without Cubebin); there are given the average values with Standard deviation from 4 experiments with 3-fold repetition.

[1] = tested on: prostate specific antigen (PSA); test: Secretion of the prostate specific antigen (immuno-assay, PSA/DNA); format: cell-based; conditions: LNCap, 2 days, 10% CSS, different concentrations
LNCap cells [2] = test: Inhibition of the cell proliferation, LNCap cells; format: cell-based; conditions: 4 days, 10% FBS culture medium, versus solvent control
Procedure: as §1, §2, §3, §4, §5

LNCap cells [3] = conditions: control value at zero extract; cited from earlier work
LNCap cells [4] = conditions: control value at zero extract; cited from earlier work; remark: listed apart in the source
LNCap cells [5] = test: Apoptosis immuno-assay (mono and oligonucleosomes); format: cell-based; conditions: 2 days, 10% FBS
Procedure: The induction of apoptosis by means of the liquid extract P9605 prepared according to example 1 was determined.
As preliminary test was added for the measurement of the induction of apoptosis the tumor necrosis factor TNF-α alone as well as in combination with 100 nM dihydrotestosterone, abbreviated with DHT, to LNCap cells. The so treated cells were cultivated during 2 days in 10% FBS culture medium.
The apoptosis of the cells was measured by applying a commercial apoptosis-immuno-assay-kit in which are detected specifically the DNA and histon fragments that are present as mono and oligonucleosomes.
Analogous experiments were carried out with DHT alone as well as in combination with 10 μg/ml of the extract prepared according to the present invention.

For `OC1OC[C@H](Cc2ccc3c(c2)OCO3)[C@H]1Cc1ccc2c(c1)OCO2` (mixture of isomers) [Cubebin], the “androgen receptor denseness in LNCap cells” value (androgen receptor) was “reduced increasingly in dependency of the dose”, the “IC50-value, 5α-reductase type II” value (5α-reductase type II) was 9.9 µg/mL and the “inhibitive effect on the activity of the 5α-reductase type II” value (5α-reductase type II) was “inhibitive effect”. The “anti-proliferate effect on PC-3 cells” value (PC-3 cells) was “anti-proliferate effect on LNCap and PC-3 cells in dependency of the respective dose”, the “inhibition of the secretion of PSA (PSA/DNA)” value [1] was “inhibit the secretion of the prostate specific antigen (PSA) in dependency of the respective dose” and the “anti-proliferate effect on LNCap cells” value (LNCap cells [2]) was “anti-proliferate effect on LNCap and PC-3 cells in dependency of the respective dose”.
In the case of `C[C@]12CCC(=O)C[C@@H]1CC[C@@H]1[C@@H]2CC[C@]2(C)[C@@H](O)CC[C@@H]12` [DHT, dihydrotestosterone], the “effect of DHT on the cell proliferation” value (LNCap cells [3]) is given as “enhances the cell proliferation”, the “effect of DHT on the DNA synthesis” value (LNCap cells [4]) is given as “enhances the DNA synthesis” and the “effect on the TNF-α induced apoptosis” value (LNCap cells [5]; TNF-α in combination with 100 nM DHT) is given as “revoked completely or nearly completely”.
In the case of `CC(C)(C)NC(=O)[C@H]1CC[C@H]2[C@@H]3CC[C@H]4NC(=O)C=C[C@]4(C)[C@H]3CC[C@]12C` [Finasterid], the “inhibitive effect on the activity of the 5α-reductase type II” value (5α-reductase type II) was “inhibiting effect”.
For TNF-α, the induction of apoptosis (LNCap cells [5]; TNF-α alone) was “induces the apoptosis of the tumor cells in dependency of the dose”.
